Values quoted from earlier work as cited in paper PMC11696226 (Nature Communications, 2025).
Read-outs that look alike come from different tables or passages of the source.

Tested on: metastatic TNBC / breast cancer

Compound	median OS (TNBC, pooled EMBRACE and Study 301) [month]	median PFS (TNBC, pooled EMBRACE and Study 301, 199 patients) [month]	median OS (ASCENT, metastatic TNBC) [months]	median PFS (ASCENT, metastatic TNBC, ≥2 lines of chemotherapy) [months]	HR for OS vs conventional chemotherapy (ASCENT, p < 0.001)	HR for PFS vs conventional chemotherapy (ASCENT, p < 0.001)
C=C1C[C@@H]2CC[C@@]34C[C@H]5O[C@H]6[C@@H](O3)[C@H]3O[C@H](CC[C@@H]3O[C@H]6[C@H]5O4)CC(=O)C[C@@H]3[C@@H](OC)[C@@H](C[C@H](O)CN)O[C@H]3C[C@H]3O[C@@H](CC[C@@H]1O2)C[C@@H](C)C3=C [eribulin]	12.4	2.8				
SG: antibody-drug conjugate			12.1	5.6	0.48	0.41
